Consider one molecule from patent EP0726760B1, “SELF-EMULSIBLE FORMULATION FORMING AN OIL-IN-WATER EMULSION” (YISSUM RESEARCH DEVELOPMENT COMPANY OF THE HEBREW …, priority 1993, dated 1995).

Read-outs that look alike come from different tables or passages of the source.

This data set is described as follows: Acute toxicity after intraperitoneal injection, 30 days. The arrangement: species or system souris BALB/c. As to conditions: mouse, in vivo, ip, printed 1:10 (0.5), i.p., read-out: % de survivants après 30 jours. Here is the method:
La toxicité aiguë des formulations décrites dans les exemples II - IV, a été examinée sur des souris BALB/c pendant 30 jours. 0.5 ml de chacun des SEOF dilué au 10ème (plus que 300 fois constitue un surdosage) et au 100ème (plus que 30 fois constitue un surdosage) ont été injectés intrapéritonalement au groupe de 4-6 souris. L'état de l'animal a été surveillé pendant plusieurs heures après le processus et ensuite chaque jour, pandant un mois.

For the molecule `OCc1ccccc1` [BA, alcool benzylique], the survival at 720 h was found to be 100% (BA 1.5 % in water for injection) and 15% (BA 3 % in water for injection).
